# Where two headings read alike, the source gives them in different places.
# How the values were obtained:
# [1] = Example 6C pharmokinetic study of ILY-4001 (IV and oral); format: in vivo, mice; conditions: 30 mg/kg oral
# Description: This example characterized ILY-4001 [2-(3-(2-amino-2-oxoacetyl)-1-(biphenyl-2-ylmethyl)-2-methyl-1H-indol-4-yloxy)acetic acid], alternatively referred to herein as methyl indoxam, with respect to activity, as determined by IC50 assay (Example 6A), with respect to cell absorbtion, as determined by in-vitro Caco-2 assay (Example 6B) and with respect to bioavailability, as determined using in-vivo mice studies (Example 6C).
# This example evaluated the bioavailability of ILY-4001 [2-(3-(2-amino-2-oxoacetyl)-1-(biphenyl-2-ylmethyl)-2-methyl-1H-indol-4-yloxy)acetic acid], alternatively referred to herein as methyl indoxam. […]
# Bioavailability was calculated as a ratio of AUC-oral/AUC-intravenous (IV). To determine this ratio, a first set of subject animals were given a measured intravenous (IV) dose of ILY-4001, followed by a determination of ILY-4001 levels in the blood at various time points after administration (e.g., 5 minutes through 24 hours). Another second set of animals was similarly dosed using oral administration, with blood levels of ILY-4001 determined at various time points after administration (e.g., 30 minutes through 24 hours). The level of ILY-4001 in system to circulation were determined by generally accepted methods (for example as described in Evans, G., A Handbook of Bioanalysis and Drug Metabolism. Boca Raton, CRC Press (2004)). […]
# [2] = test system: C57BL/6 (wt) mice on high fat/high sucrose diabetogenic diet; experiment: Example 5 in-vivo evaluation in mice on high fat/high sucrose diabetogenic diet; set-up: species or system mouse; conditions: for body weight gain compared to wild-type control group: week 4 and week 10; for plasma levels of cholesterol / plasma levels of triglycerides: 10 weeks
# Procedure: ILY-4001 (FIG. 2) was evaluated as a PLA2 IB inhibitor in a set of experiments using wild-type mice and genetically deficient PLA2 (−/−) mice (also referred to herein as PLA2 knock-out (KO) mice). In these experiments, wild-type and PLA2 (−/−) mice were maintained on a high fat/high sucrose diet, details of which are described below.
# Briefly, four groups were set up, each having six mice. Three of the groups included six wild-type PLA2 (+/+) mice in each group (eighteen mice total), and one of the groups included six genetically deficient PLA2 (−/−) mice. One of the wild-type groups was used as a wild-type control group, and was not treated with ILY-4001. The other two wild-type groups were treated with ILY-4001-one group at a lower dose (indicated as “L” in Table 1) of 25 mg/kg/day, and the other at a higher dose (indicated as “H” in Table 1) of 90 mg/kg/day. The group comprising the PLA2 (−/−) mice was used as a positive control group.
# The experimental protocol used in this study was as follows. The four groups of mice, including wild type and isogenic PLA2 (−/−) C57BL/J mice were acclimated for three days on a low fat/low carbohydrate diet. After the three day acclimation phase, the animals were fasted overnight and serum samples taken to establish baseline plasma cholesterol, triglyceride, and glucose levels, along with baseline body weight. The mice in each of the treatment groups were then fed a high fat/high sucrose diabetogenic diet (Research Diets D12331). 1000 g of the high fat/high sucrose D12331 diet was composed of casein (228 g), DL-methionine (2 g), maltodextrin 10 (170 g), sucrose (175 g), soybean oil (25 g), hydrogenated coconut oil (333.5 g), mineral mix S10001 (40 g), sodium bicarbonate (10.5 g), potassium citrate (4 g), vitamin mix V10001 (10 g), and choline bitartrate (2 g). This diet was supplemented with ILY-4001 treatments such that the average daily dose of the compound ingested by a 25 g mouse was: 0 mg/kg/day (wild-type control group and PLA2 (−/−) control group); 25 mg/kg/day (low-dose wild-type treatment group), or 90 mg/kg/day (high-dose wild-type treatment group). The animals were maintained on the high fat/high sucrose diet, with the designated ILY-4001 supplementation, for a period of ten weeks.
# Body weight measurements were taken for all animals in all treatment and control groups at the beginning of the treatment period and at 4 weeks and 10 weeks after initiation of the study. (See Example 5A). Blood draws were also taken at the beginning of the treatment period (baseline) and at 4 weeks and 10 weeks after initiation of the study, in order to determine fasting glucose (See Example 5B). Cholesterol and triglyceride levels were determined from blood draws taken at the beginning of the treatment (baseline) and at ten weeks. (See Example 5C).
# Caco-2 cells = experiment: Example 6B Caco-2 permeability study; format: in vitro ADME, human
# Procedure: The culture medium was refreshed every 48 hours.
# Papp=(dQ/dt)×(1/C0)×(1/A)
# [3] = predicted to survive passage through the stomach; cited from earlier work
# mouse PLA2 IB enzyme = mouse PLA2 IB enzyme (Mus musculus, UniProt Q9Z0Y2); conditions: versus the mouse PLA2 IB enzyme; Singer, Ghomashchi et al. 2002; cited from earlier work
# human PLA2 IB enzyme = human PLA2 IB enzyme (Homo sapiens, UniProt P04054); conditions: versus the human PLA2 IB enzyme; Singer, Ghomashchi et al. 2002; cited from earlier work
# [4] = molecular target: T1, mouse group 1B PLA2 (mps PLA2) (Mus musculus, UniProt Q9Z0Y2); experiment: Example 8 fluorimetric PLA2 inhibition assay (PPyrPM), mouse enzyme; format: biochemical
# T1 construct: made in house; host or cells: E. coli
# Description: (§1) In this example, a fluorimetric assay procedure was used to evaluate the indole and indole-related compounds of the invention as inhibitors of group 1B phospholipase A2 (PLA2) from human, mouse and porcine. A description of this assay is found in articles: Leslie, C C and Gelb, M H (2004) Methods in Molecular Biology “Assaying phospholipase A2 activity”, 284:229-242; Singer, A G, et al. (2002) Journal of Biological Chemistry “Interfacial kinetic and binding properties of the complete set of human and mouse groups I, II, V, X, and XII secreted phospholipases A2”, 277:48535-48549, which are incorporated herein as references.
# (§2) In general, this assay used a phosphatidylmethanol substrate with a pyrene fluorophore on the terminal end of the sn-2 fatty acyl chain. Without being bound by theory, close proximity of the pyrenes from neighboring phospholipids in a phospholipid vesicle caused the spectral properties to change relative to that of monomeric pyrene. Bovine serum albumin was present in the aqueous phase and captured the pyrene fatty acid when it is liberated from the glycerol backbone owing to the PLA2-catalyzed reaction. However, a potent inhibitor can inhibit the liberation of pyrene fatty acid from the glycerol backbone. […] The effect of a given inhibitor and inhibitor concentration on human, mouse and porcine phospholipase was determined.
# Recombinant human and mouse group 1B PLA2 were cloned and expressed in E. coli as insoluble inclusion bodies. The inclusion bodies were isolated and purified by sonicating cell pellet in lysis buffer (50 mM Tris-HCl pH 7.0, 250 mM NaCl, 0.5% Triton 100), centrifugation at 12,000×g, and washing three times in washing buffer (20 mM Tris-HCl pH 7.0, 250 mM NaCl, 0.5% Triton 100). […]
# (§3) The following procedure was performed to evaluate the inhibitory potency of the evaluated compounds. • 1. […]
# [5] = molecular target: T2, human group 1B PLA2 (hps PLA2) (Homo sapiens, UniProt P04054); experiment: Example 8 fluorimetric PLA2 inhibition assay (PPyrPM), human enzyme; format: biochemical; conditions: read-out: ILYPSA IC50 hps PLA2
# T2 construct: made in house; host or cells: E. coli
# Description: as §1
# as §2, with “reaction.” for “reaction. However, a potent inhibitor can inhibit the liberation of pyrene fatty acid from the glycerol backbone.”, “determined. […]” for “determined.”
# as §3
# [6] = molecular target: T3, Porcine group 1B phospholipase A2 (pps PLA2) (Sus scrofa, UniProt P00592); experiment: Example 8 fluorimetric PLA2 inhibition assay (PPyrPM), porcine enzyme; format: biochemical; conditions: read-out: ILYPSA IC50 pps PLA2
# T3 construct: purchased
# Description: as §1
# In general, this assay used a phosphatidylmethanol substrate with a pyrene fluorophore on the terminal end of the sn-2 fatty acyl chain. […] The effect of a given inhibitor and inhibitor concentration on human, mouse and porcine phospholipase was determined. […]
# The following procedure was performed to evaluate the inhibitory potency of the evaluated compounds. • 1. […] The fluorescence was read using an excitation of 342 nm and an emission of 395 nm.
# Evaluated compounds were tested in duplicate and their values were averaged to plot the inhibition curve and calculate the IC50. […] The IC50 was calculated using the BioDataFit 1.02 (Four Parameter Model) software package. […]
# T1 sequence (Q9Z0Y2 23-146): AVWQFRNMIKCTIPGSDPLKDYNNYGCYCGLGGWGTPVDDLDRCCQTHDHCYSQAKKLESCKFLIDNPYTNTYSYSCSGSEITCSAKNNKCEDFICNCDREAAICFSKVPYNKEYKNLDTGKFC
# Sequence of human PLA2 IB enzyme (P04054 23-148): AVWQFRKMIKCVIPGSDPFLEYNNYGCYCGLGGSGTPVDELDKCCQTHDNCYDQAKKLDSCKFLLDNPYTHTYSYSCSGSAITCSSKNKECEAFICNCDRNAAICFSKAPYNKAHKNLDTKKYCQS
# T2 sequence (P04054 23-148): as above
# T3 sequence (P00592 23-146): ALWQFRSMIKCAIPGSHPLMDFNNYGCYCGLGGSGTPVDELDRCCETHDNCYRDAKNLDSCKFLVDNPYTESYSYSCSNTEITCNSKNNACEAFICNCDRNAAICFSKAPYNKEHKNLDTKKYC
# Sequence of mouse PLA2 IB enzyme (Q9Z0Y2 23-146): as the sequence (Q9Z0Y2 23-146) above
molecule,measurement,setting,value
"Cc1c(C(=O)C(N)=O)c2c(OCC(=O)O)cccc2n1Cc1ccccc1-c1ccccc1 [ILY-4001, 2-(3-(2-amino-2-oxoacetyl)-1-(biphenyl-2-ylmethyl)-2-methyl-1H-indol-4-yloxy)acetic acid]",level of non-absorption from the GI tract into systemic circulation,[1],~72%
same,body weight gain compared to wild-type control group,[2]; 25 mg/kg/d in diet,significantly reduced body weight gains
same,body weight gain compared to wild-type control group,[2]; 90 mg/kg/d in diet,significantly reduced body weight gains
same,plasma levels of cholesterol,[2]; high dose (90 mg/kg/day),substantially reduced
same,plasma levels of triglycerides,[2]; high dose (90 mg/kg/day),substantially reduced
same,plasma levels of cholesterol,[2]; low dose (25 mg/kg/day),substantially reduced
same,plasma levels of triglycerides,[2]; low dose (25 mg/kg/day),substantially reduced
same,fasting glucose levels,"[2]; low dose (25 mg/kg/day), week four",moderately beneficial effect
same,fasting glucose levels,"[2]; low dose (25 mg/kg/day), week ten",beneficial effect was not observed
same,absorbtion from the GI lumen,Caco-2 cells; based on Caco-2 assays and pharmokinetic studies,relatively low absorbtion
same,stability at low pH,[3],stable at low pH
same,IC50,mouse PLA2 IB enzyme,~0.15 µM
same,IC50,human PLA2 IB enzyme,~0.2 µM
2-(3-Aminooxalyl-1-{12-[3-aminooxalyl-4-(1-carboxy-2-methyl-propoxy)-2-methyl-indol-1-yl]-dodecyl}-2-methyl-1H-indol-4-yloxy)-3-methyl-butyric acid [ILY-V-44],IC50,[4]; read-out: ILYPSA IC50 mps PLA2,0.48 µM
same,IC50,[5],0.28 µM
same,IC50,[6],0.05 µM
Lucifer Yellow,apparent permeability,"Caco-2 cells; 10 uM in apical wells, paracellular transport control",around 2.82×10^−7+/−0.37×10^−7 cm/s
"Cc1c(C(=O)C(N)=O)c2c(OC(C(=O)O)C(C)C)cccc2n1CCCCCCCCCCCCOc1ccccc1OCCCCCCCCCCCCn1c(C)c(C(=O)C(N)=O)c2c(OC(C(=O)O)C(C)C)cccc21 (stereo not drawn) [ILY-V-33, 2-{3-Aminooxalyl-1-[12-(2-{12-[3-aminooxalyl-4-(1-carboxy-2-methyl-propoxy)-2-methyl-indol-1-yl]-dodecyloxy}-phenoxy)-dodecyl]-2-methyl-1H-indol-4-yloxy}-3-methyl-butyric acid]",IC50,[4],0.3 µM
